# Patent publication US20080188528A1, “Modulators of C3a receptor and methods of use thereof” (priority 2006, published 2008)
# Structures can show the parent of a compound that is named as a salt.
# Molecular target: T1, human C3a receptor (C3aR) (Homo sapiens, UniProt Q16581)
# T1 construct: expressed in transfected cells
# T1 sequence (Q16581 1-482): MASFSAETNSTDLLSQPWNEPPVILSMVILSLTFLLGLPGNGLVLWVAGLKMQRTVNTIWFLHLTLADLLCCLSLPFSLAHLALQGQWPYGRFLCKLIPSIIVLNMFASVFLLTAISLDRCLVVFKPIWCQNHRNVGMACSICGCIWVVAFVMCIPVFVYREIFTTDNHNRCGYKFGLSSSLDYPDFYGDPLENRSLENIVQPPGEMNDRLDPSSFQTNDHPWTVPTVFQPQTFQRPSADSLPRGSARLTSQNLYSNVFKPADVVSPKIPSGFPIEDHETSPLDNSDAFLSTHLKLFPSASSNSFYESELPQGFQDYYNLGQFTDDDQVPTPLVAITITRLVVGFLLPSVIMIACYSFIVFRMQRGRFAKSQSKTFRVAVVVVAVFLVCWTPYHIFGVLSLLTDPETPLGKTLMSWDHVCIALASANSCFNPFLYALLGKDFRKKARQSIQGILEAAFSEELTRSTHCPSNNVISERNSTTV
# Test: Inhibition of human [125I]-C3a binding to human C3a receptor (SPA, membranes of HEK293 cells expressing recombinant C3aR)
# Conditions: 0.1 nM [125I]-C3a, 3 hours at room temperature; Table 1
# Protocol: Inhibition of human [^125I]-C3a binding to human C3a receptor
# Binding of human [^125I]-C3a to human C3a receptor (C3aR) was done using cell membranes from HEK293 cells stably expressing recombinant C3aR, in a homogeneous scintillation proximity assay (SPA). The C3aR cell membranes were pre-coupled over-night at 4° C. to WGA-PVT SPA beads (Amersham) at a ratio of 10 μg cell membrane to 0.5 mg beads/assay. Assay was performed in 96-well microtiter Optiplates (Packard) by mixing coupled beads and 0.1 nM [^125I]-C3a (2200 Ci/mmol, Perkin Elmer Life Sciences), in a total volume of […] binding buffer (20 mM HEPES, pH 7.4, 125 mM NaCl, 5 mM KCl, 1 mM CaCl2, 1 mM MgCl2, 0.25% BSA, 0.2% CHAPS). Test compounds were diluted in DMSO and were tested for their inhibitory potential in the assay (final concentration≦1% DMSO). Incubation was done for 3 hours at room temperature followed by reading in a TopCount scintillation microplate reader. Non-specific binding was determined by adding 1 μM unlabeled C3a (Calbiochem) to the assay mixture. Calculation of the IC50 was done as above using a nonlinear least square fitting program, with Graphpad Prism.
row,Compound,IC50
1,"N=C(N)NCCC[C@@H](NC(=O)c1cccn(Cc2ccccc2)c1=O)C(=O)O [Compound 2, (2R)-2-{[(1-benzyl-2-oxo-1,2-dihydropyridin-3-yl)carbonyl]amino}-5-carbamimidamidopentanoic acid•TFA]",500 to 20000 nM
2,"N=C(N)NCCC[C@H](NC(=O)c1cccn(Cc2cccc3ccccc23)c1=O)C(=O)O [Compound 14, (2S)-5-carbamimidamido-2-({[1-(1-naphthylmethyl)-2-oxo-1,2-dihydropyridin-3-yl]carbonyl}amino)pentanoic acid•TFA]",< 50 nM
3,CC(C)c1ccc(Cn2cccc(C(=O)N[C@@H](CCCNC(=N)N)C(=O)O)c2=O)cc1 [Compound 8],< 50 nM
4,"N=C(N)NCCC[C@H](NC(=O)c1cccn(-c2ccccc2)c1=O)C(=O)O [Compound 33, (2S)-5-carbamimidamido-2-{[(2-oxo-1-phenyl-1,2-dihydropyridin-3-yl)carbonyl]amino}pentanoic acid•TFA]",500 to 20000 nM
5,"N=C(N)NCCC[C@H](NC(=O)c1cccn(-c2ccc(-c3ccccc3)cc2)c1=O)C(=O)O [Compound 34, (2S)-2-{[(1-biphenyl-4-yl-2-oxo-1,2-dihydropyridin-3-yl)carbonyl]amino}-5-carbamimidamidopentanoic acid•TFA]",500 to 20000 nM
6,"CC(C)c1ccccc1-c1ccccc1Cn1cccc(C(=O)N[C@@H](CCCNC(=N)N)C(=O)O)c1=O [Compound 28, (2S)-5-carbamimidamido-2-[({1-[(2′-isopropylbiphenyl-2-yl)methyl]-2-oxo-1,2-dihydropyridin-3-yl}carbonyl)amino]pentanoic acid•TFA]",< 50 nM
7,"Cn1cccc(C(=O)N[C@@H](CCCNC(=N)N)C(=O)O)c1=O [Compound 9, (2S)-5-carbamimidamido-2-{[(1-methyl-2-oxo-1,2-dihydropyridin-3-yl)carbonyl]amino}pentanoic acid•TFA]",500 to 20000 nM
8,"N=C(N)NCCC[C@H](NC(=O)c1cccn(Cc2cccc(Br)c2)c1=O)C(=O)O [Compound 4, (2S)-2-({[1-(3-bromobenzyl)-2-oxo-1,2-dihydropyridin-3-yl]carbonyl}amino)-5-carbamimidamidopentanoic acid•TFA]",< 50 nM

# Same assay, conditions: 0.1 nM [125I]-C3a, 3 hours at room temperature; Table 2
row,Compound,IC50
1,"N=C(N)NCCC[C@H](NC(=O)c1cccn(C(c2ccccc2F)c2ccccc2F)c1=O)C(=O)O [Compound 46, (2S)-2-[({1-[bis(2-fluorophenyl)methyl]-2-oxo-1,2-dihydropyridin-3-yl}carbonyl)amino]-5-carbamimidamidopentanoic acid•TFA]",< 50 nM
2,"N=C(N)NCCC[C@H](NC(=O)c1cccn(C(c2cccc(F)c2)c2cccc(F)c2)c1=O)C(=O)O [Compound 45, (2S)-2-[({1-[bis(3-fluorophenyl)methyl]-2-oxo-1,2-dihydropyridin-3-yl}carbonyl)amino]-5-carbamimidamidopentanoic acid•TFA]",< 50 nM
3,"CC(c1ccccc1)n1cccc(C(=O)N[C@@H](CCCNC(=N)N)C(=O)O)c1=O (stereo partly drawn) [Compound 50, (2S)-5-carbamimidamido-2-({[2-oxo-1-(1-phenylethyl)-1,2-dihydropyridin-3-yl]carbonyl}amino)pentanoic acid•TFA]",< 50 nM
4,"N=C(N)NCCC[C@H](NC(=O)c1cccn(C(c2ccccc2)c2ccccc2)c1=O)C(=O)O [Compound 40, (2S)-5-carbamimidamido-2-({[1-(diphenylmethyl)-2-oxo-1,2-dihydropyridin-3-yl]carbonyl}amino)pentanoic acid•TFA]",< 50 nM

# Same assay, conditions: 0.1 nM [125I]-C3a, 3 hours at room temperature; Table 4
row,Compound,IC50
1,"Cc1ccc(S(=O)(=O)NC(=N)NCCC[C@H](NC(=O)c2cccn(C(c3ccccc3)c3ccccc3)c2=O)C(=O)O)cc1 [Compound 77, (2S)-2-({[1-(diphenylmethyl)-2-oxo-1,2-dihydropyridin-3-yl]carbonyl}amino)-5-{[(4-methylphenyl)sulfonyl]carbamimidamido}pentanoic acid]",50 to 500 nM
2,"Cc1ccc(S(=O)(=O)NCCCC[C@H](NC(=O)c2cccn(Cc3ccccc3)c2=O)C(=O)O)cc1 [Compound 61, (2S)-2-{[(1-benzyl-2-oxo-1,2-dihydropyridin-3-yl)carbonyl]amino}-6-{[(4-methylphenyl)sulfonyl]amino} hexanoic acid]",500 to 20000 nM
3,"Cc1ccc(S(=O)(=O)NCCCC[C@H](NC(=O)c2cccn(C(c3ccccc3)c3ccccc3)c2=O)C(=O)O)cc1 [Compound 62, (2S)-2-({[1-(diphenylmethyl)-2-oxo-1,2-dihydropyridin-3-yl]carbonyl}amino)-6-{[(4-methylphenyl)sulfonyl]amino}hexanoic acid]",50 to 500 nM
4,"Cc1ccc(S(=O)(=O)NC(=N)NCCC[C@H](NC(=O)c2cccn(Cc3ccccc3)c2=O)C(=O)O)cc1 [Compound 76, (2S)-2-{[(1-benzyl-2-oxo-1,2-dihydropyridin-3-yl)carbonyl]amino}-5-{[(4-methylphenyl)sulfonyl]carbamimidamido} pentanoic acid]",500 to 20000 nM

# Same assay, conditions: 0.1 nM [125I]-C3a, 3 hours at room temperature; Table 5
row,Compound,IC50
1,"Cc1cc(Cc2ccccc2)c(=O)n(CC(=O)N[C@@H](CCCNC(=N)N)C(=O)O)c1 [Compound 84, (2S)-2-{[(3-benzyl-5-methyl-2-oxopyridin-1(2H)-yl)acetyl]amino}-5-carbamimidamidopentanoic acid•TFA]",500 to 20000 nM

# Same assay, conditions: 0.1 nM [125I]-C3a, 3 hours at room temperature; Table 6
row,Compound,IC50
1,"CC(=N)NCCC[C@H](NC(=O)c1ccc(C(c2ccccc2Cl)c2ccccc2Cl)s1)C(=O)O [Compound 126, (2S)-2-[({5-[bis(2-chlorophenyl)methyl]thiophen-2-yl}carbonyl)amino]-5-(ethanimidoylamino)pentanoic acid•TFA]",500 to 20000 nM
2,"CC(=N)NCCC[C@H](NC(=O)c1cccn(Cc2ccc(C(F)(F)F)cc2)c1=O)C(=O)O [Compound 113, (2S)-5-(ethanimidoylamino)-2-[({2-oxo-1-[4-(trifluoromethyl)benzyl]-1,2-dihydropyridin-3-yl}carbonyl)amino]pentanoic acid•TFA]",500 to 20000 nM
3,"CC(=N)NCCC[C@H](NC(=O)c1ccc(C(c2ccc(F)cc2)c2ccc(F)cc2)s1)C(=O)O [Compound 128, (2S)-2-[({5-[bis(4-fluorophenyl)methyl]thiophen-2-yl}carbonyl)amino]-5-(ethanimidoylamino)pentanoic acid•TFA]",50 to 500 nM
4,"CC(=N)NCCCC[C@H](NC(=O)c1cccn(C(c2ccccc2)c2ccccc2)c1=O)C(=O)O [Compound 88, (2S)-2-({[1-(diphenylmethyl)-2-oxo-1,2-dihydropyridin-3-yl]carbonyl}amino)-6-(ethanimidoylamino)hexanoic acid•TFA]",50 to 500 nM
5,"CC(=O)NCCC[C@H](NC(=O)c1cccn(C(c2ccccc2)c2ccccc2)c1=O)C(=O)O [Compound 91, (2S)-5-(Acetylamino)-2-({[1-(diphenylmethyl)-2-oxo-1,2-dihydropyridin-3-yl]carbonyl}amino)pentanoic acid]",50 to 500 nM
6,"CC(=N)NCCC[C@H](NC(=O)c1cccn(Cc2cccc(I)c2)c1=O)C(=O)O [Compound 114, (2S)-5-(ethanimidoylamino)-2-({[1-(3-iodobenzyl)-2-oxo-1,2-dihydropyridin-3-yl]carbonyl}amino)pentanoic acid•TFA]",50 to 500 nM
7,"CC(=N)NCCC[C@H](NC(=O)c1cccn(Cc2ccccc2)c1=O)C(=O)O [Compound 100, (2S)-2-{[(1-benzyl-2-oxo-1,2-dihydropyridin-3-yl)carbonyl]amino}-5-(ethanimidoylamino)pentanoic acid•TFA]",500 to 20000 nM
